Experimental data reported in patent publication US20240025849A1 (MAX DELBRÜCK-CENTRUM FÜR MOLEKULARE MEDIZIN IN DER …, priority 2020, published 2024).
“Also recorded” adds a separate entry of the source. Where two headings read alike, the source gives them in different places.

Assays:
[1] = Intravenous pharmacokinetic study in mice (blood plasma)
Procedure: Intravenous Pharmacokinetic Study in Mice. The intravenous pharmacokinetic study in mice was carried out by the company Touchstone Biosciences (Plymouth Meeting, USA) according to their standard procedures. In brief, 3 male adult mice of the CD-1 strain were fasted overnight. 5 mg/kg compound was given intravenously in one shot.

[2] = system: primary cultured neonatal microglia; test: AlamarBlue assay (metabolic activity / cell viability) in microglia; assay type: cell-based, mouse
Procedure: (§1) Primary cultured neonatal microglia. For preparation of cultured neonatal microglia, P0-P3 mice were used. 10 brains were extracted, meninges and cerebellum were removed and put on ice with Hank's balanced salt solution (HBSS). The dissected brains were washed 3 times before adding 400 μL trypsin (0.1 mg/L) and DNAse (5 μg/L) in phosphate buffered saline (PBS). After 2 min of incubation with this solution, the reaction was blocked by adding plain medium. After removal of the medium, 1 mg DNAse was added and the cells were mechanically dissociated, with a Pasteur pipette followed by a glass pipette. The cells were centrifuged for 10 min at 129 g at 4° C. The supernatant was discarded. The pellet was resuspended in plain medium and plated (2.5 brains/flask) in Poly-L-Lysine coated flasks. The cells were washed after 2 days with PBS and incubated for another 7 days in plain medium. Afterwards the medium was replaced by plain medium with 33% L929 conditioned medium. After 2 days, cells were harvested by shaking them for 30 min at 150 rpm. The supernatant was centrifuged for 10 min at 129 g at 4° C. The cells were plated into a 96 well plate (100 000 cells/well, 200 μL medium per well). This procedure could be repeated 2 times with a 2 day interval.
Concentration-dependent validation and viability determination. Concentrated stock solutions of compounds identified from primary screening were rearranged onto anew 384-well plate, and 10 sequential 2-fold serial dilutions were created across multiple plates in DMSO. Starting from these diluted compound mother plates, the protocol was repeated exactly as for primary screening to span the concentration range between 5 μM and 20 nM. In order to obtain the 10 μM and 20 μM concentration points, 1000 n1 and 2000 n1 were transferred from the 500 μM pre-dilution plate, respectively. Each concentration was measured in duplicate. Normalized percent activities were plotted against the compound concentration to obtain the IC50 values. To obtain also information about the impact of compounds on cell viability, a second batch of plates was prepared as described above, but 5 μl of Alamar Blue solution was added after 48 hours instead of Griess reagent and incubation was continued for additional 4 hours at 37° C. Finally, the resorufin fluorescence was detected at an excitation wavelength of 530 nm and emission of 570 nm. Since no control samples were present on the assay plate for data normalization of cell viability, the raw data values were added on the second y-scale to the IC50 plots.
AlamarBlue assay. […] The conversion of resazurin to resorufin was measured by absorbance (absorbance wavelength of 570 nm and a reference wavelength of 600 nm) after 3 hours.

[3] = system: primary cultured neonatal microglia; test: Cytokine release (IL1β, IL6, TNFα) ELISA in microglia; assay type: cell-based, mouse
Procedure: as §1
Enzyme-linked immunosorbent assay (ELISA). Cells were seeded according to the protocols described above, after compounds and stimuli were added, the supernatant was collected, centrifuged (500 g, 5 minutes) and stored at −20° C. until analysed. The following kits from Bio-Techne (Minneapolis, USA) were used to detect IL1β, IL6 and TNFα: ELISA Mouse IL-1β/IL-1F2 Duo Set, ELISA Mouse IL-6, ELISA Mouse TNFα. ELISA assays were performed according to the manufacturers protocol.

[4] = system: primary cultured neonatal microglia; test: LPS induced NO release, Griess assay, laboratory scaled setup; assay type: cell-based, mouse; settings: for IC50: 96 well plate, 1 h C1, then 1 μg/ml LPS 48 h, 2 nM to 20 μM, read-out: IC50, LPS induced NO release
[5] = system: bone marrow derived macrophages; test: AlamarBlue assay (metabolic activity) in macrophages; assay type: cell-based, mouse; settings: for cell (metabolic) activity, % of positive control: 1 μg/mL LPS 48 hours
Procedure: Primary cultured macrophages. Bone marrow macrophages were isolated from C57BL/6 adult mice ([…]-56) as previously described (Marim et al., 2010). In summary, mice were killed by cervical dislocation and the femurs were removed by cutting through the tibia near the pelvic bone and below the knee. Any muscle connected to the bone was carefully removed. Ice cold sterile PBS was slowly flushed through the bone and the contents were collected in a sterile 15 mL polypropylene tube on ice. After centrifugation for 10 min at 200 g at 4° C., red blood cells were lysed by adding 3-10 mL ammonium chloride solution. After a 3-5 min recovery period, the suspension was centrifuged for 10 min at 200 g at 4° C. and the supernatant was removed. Cells were plated in a 10 cm dish with plain medium containing 10 ng/mL M-CSF and cultured for 7 days to allow differentiation. 50 000 cells were plated with 200 μL medium per well in a 96 well plate. AlamarBlue assay. Cells were seeded according to the protocols described above, after compounds and stimuli were added, the cells were washed once with HBSS (37° C.) and 100 μl of a 1:10 AlamarBlue (Thermo Fisher Scientific) dilution in plain medium was added. The conversion of resazurin to resorufin was measured by absorbance (absorbance wavelength of 570 nm and a reference wavelength of 600 nm) after 3 hours.

[6] = 1 h C1, then 1 μg/ml LPS 48 hours
[7] = unstimulated microglia, 48 hours

SMILES: COc1ccc(NC(=O)C(NC(=O)C2CCCN2C(=O)OCc2ccccc2)c2ccc(OC)cc2)cc1 (centres unmarked) [C1]
- survival / health issues within 24 hours ([1]; 5 mg/kg intravenous, 3 mice): All mice survived; also recorded: no health issues were reported and all mice survived
- concentration in blood plasma ([1]; 5 min after 5 mg/kg intravenous, CD-1 male mice): 12 µM
- concentration at 5 min ([1]; male, CD-1, mouse, plasma, intravenous, 5 mg/kg, concentration in blood plasma, 5 min after 5 mg/kg intravenous, CD-1 male mice): 11.9 µM
- concentration at 24 h ([1]; male, CD-1, mouse, plasma, intravenous, 5 mg/kg, concentration in blood plasma, 24 hours after 5 mg/kg intravenous, CD-1 male mice): 0.00126 µM
- cell viability ([2]; 2 nM to 20 μM, 1 μg/ml LPS 48 h): no effects on cell viability
- metabolic activity ([2]; 20 μM C1, 1 μg/mL LPS 48 h): 84%±3.99
- metabolic activity in unstimulated microglia ([2]; C1 alone 0.025, 0.25, 2.5 μM, 48 hours): did not show any significant difference; also recorded: nor did it interfere with the metabolic activity
- metabolic activity (AlamarBlue) ([2]; HTS setup, LPS stimulated): remained stable
- LPS induced IL1β release ([3]; 0.025, 0.25, 2.5 μM C1, 1 μg/ml LPS 48 hours): exceeded the LPS-induced release; also recorded: exceeds the stimulated control significantly
- LPS induced IL6 release [3, 6]: no effect; also recorded: did not show a reduction
- LPS induced TNFα release [3, 6]: no effect; also recorded: did not show a reduction
- IL1β release, C1 alone [3, 7]: did not show any significant changes; also recorded: does not alter
- IL6 release, C1 alone [3, 7]: did not show any significant changes; also recorded: does not alter
- TNFα release, C1 alone [3, 7]: did not show any significant changes; also recorded: does not alter
- IC50 [4]: 250 nM
- NO release in unstimulated microglia ([4]; C1 alone 0.025, 0.25, 2.5 μM, 48 hours, no LPS): did not show any significant difference; also recorded: did neither change the NO release
- IC50 ([4]; Mus musculus, Microglia): 252 nM
- NO concentration in supernatant vs plain medium / DMSO ([4]; post-treatment with 2.5 μM C1 after 24 hours LPS, from 8 hours (plain medium), 12 hours (DMSO)): significantly reduced; also recorded: significant reduction
- calculated plateau of NO concentration in supernatant ([4]; post-treatment: 24 hours LPS, medium change, then 2.5 μM C1 up to 60 hours): 7 µM
- cell (metabolic) activity, % of positive control ([5]; 0.025 μM C1): 78.47±31.61%
- metabolic activity of PolyIC stimulated macrophages ([5]; 0.025 μM C1, 100 μg/mL PolyIC 24 hours): reduction of metabolic activity; also recorded: deceased significantly
- cell (metabolic) activity, % of positive control ([5]; 0.25 μM C1): 69.31±36.50%
- metabolic activity of IFNγ stimulated macrophages ([5]; 0.25 μM and 2.5 μM C1, 100 ng/mL IFNγ 48 hours): significant decrease in metabolic activity; also recorded: decreased the metabolic of IFNγ (100 ng/ml) significantly compared to plain medium
- cell (metabolic) activity, % of positive control ([5]; 2.5 μM C1): 66.48±31.17%
- metabolic activity of macrophages stimulated with LPS ([5]; all tested concentrations of C1): decreased the metabolic activity
- metabolic activity of PolyIC stimulated macrophages ([5]; higher concentrations of C1 (0.25, 2.5 μM)): did not show a significant difference
